Holding throughout (format): physicochemical
Series [1] can be described thus: Thermodynamic solubility in simulated media and buffers. Conditions: listed as Structure (I) Pattern 3.
A short description of series [2]: Static storage at 40° C./75% RH, XRPD and HPLC post storage. Conditions: for stability to storage at 40° C./75% RH (in words): 40° C./75% RH (elevated temperature and humidity); for HPLC purity post storage at 40° C./75% RH: 7 days. Summed up:
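Solids isolated as counter-ion salts of the compound were stored statically at 40° C./75% RH and then re-examined by XRPD for solid-form changes. Chemical purity after storage was checked on an Agilent HP1100/Infinity II 1260 series HPLC system fitted with a diode array detector and running OpenLAB software.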

Series [3] can be described thus: Variable temperature XRPD (VT-XRPD). From the text:
XRPD diffractograms were collected on a PANalytical Empyrean diffractometer using Cu Kα radiation (45 kV, 40 mA, λ=1.544398 Å) in reflection geometry. The instrument was fitted with an Anton Paar CHC plus+ stage fitted with graphite/Kapton windows and equipped with air cooling coupled or a low vacuum pump system using an Edwards RV3 pump. A programmable divergence slit (in automatic mode), with a 10 mm fixed incident beam mask, Ni filter and 0.04 rad Soller slits were used on the incident beam. A PIXcel3D detector, placed on the diffracted beam, was fitted with a programmable anti-scatter slit (in automatic mode) and 0.04 rad Soller slits.
For variable temperature (VT-XRPD) experiments the samples were prepared and analyzed in an Anton Paar chromed sample holder. The sample chamber was under ambient atmosphere and a heating/cooling rate of 10° C./min was used with a 2 min isothermal hold before the measurement started. The measurement parameters are as per the standard screening data collection method (detailed above). Measurements were taken at the following temperatures: 25, 80, 170, 250, and 25° C.

Series [4] can be described thus: Static storage at 40° C./75% RH, XRPD and HPLC post storage. Conditions: 7 days.
A short description of series [5]: Thermodynamic solubility in simulated media and buffers. Conditions: 25° C./24 h. The protocol:
The thermodynamic solubility for Pattern 11 was determined in 3 simulated media and two buffers. […]

A short description of series [6]: Competitive slurries of Pattern 3 and Pattern 11, XRPD. Summed up:
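Turbula-mixed 1:1 Pattern 3/Pattern 11 solid (30 mg) slurried in dried solvent (20 vol) at fridge temperature, RT or 55 °C; XRPD after 7 days, mixtures re-checked after a further 10 days. Repeats at 5 °C and 55 °C used filtered THF/water (9:1) saturated with Structure (I); XRPD after 1 and 11 days.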

A short description of series [7]: Static storage at 25° C./97% RH, XRPD and HPLC post storage. Conditions: 8 days, listed as Lot B Sample 1.
Series [8] in a line: Heating for 24 h in a vacuum tray dryer, XRPD and HPLC. Conditions: 75° C., reduced pressure. The protocol:
A polymorphism study of Structure (I) was performed at 75° C., 100° C., 175° C., and 250° C. About 500 mg of Structure (I) Pattern 3 was heated at 75° C. for 24 h in a vacuum tray dryer (VTD) under reduced pressure. Obtained material after heating at 75° C. was analyzed for purity by HPLC and XPRD analysis. […] Additionally, about 500 mg of Structure (I) was heated at 75° C. for 24 h in a VTD under reduced pressure. After 24 h, material was cooled to 25-30° C. under inert atmosphere and analyzed for purity by HPLC and XRPD.
About 500 mg of Structure (I) was heated at 100° C. for 24 h in a VTD under reduced pressure. Obtained material after heating at 100° C. was analyzed for purity by HPLC and XPRD. […] Additionally, about 500 mg of Structure (I) was heated at 100° C. for 24 h in a VTD under reduced pressure. After 24 h material was cooled to 25-30° C. under inert atmosphere. Obtained material was analyzed for purity by HPLC and XPRD.
Obtained material after heating at 175° C. was analyzed for purity by HPLC and XPRD. […] After 24 h, material was cooled to 25-30° C. under inert atmosphere. Obtained material was analyzed for purity by HPLC and XPRD.
About 500 mg of Structure (I) was heated at 250° C. for 24 h in a VTD. Obtained material after heating at 250° C. was analyzed for purity by HPLC and XPRD.

≈ marks a conversion by molar mass, not a printed value. Entries after “also recorded” stand apart in the source; their conditions may differ.

`Cc1cc(Nc2cc(N)ncn2)c(=O)n2c1C(=O)NC21CCC2(CC2)CC1` [Pattern 3]: in series [1], the “solubility in simulated fluids and buffers (in words)” value is reported as “poor”. Besides, the “stability to storage at 40° C./75% RH (in words)” value in series [2] is reported as “good stability to storage”; in series [2] (listed as Lot B), “remained unchanged”. In addition, the “HPLC purity post storage at 40° C./75% RH” value turned out to be 98.5% in series [2] (40° C./75% RH, listed as 9-5) and 98.8% in series [2] (40° C./75% RH, listed as Lot B Sample 1). In addition, in series [2] (40° C./75% RH, listed as 9-5), the “change of chemical purity on storage at 40° C./75% RH (in words)” value is recorded as “small decrease in chemical purity”. For the same molecule, the “VT-XRPD form at 25-80° C.” value in series [3] (25-80° C.) is given as 25-80° C.: Pattern 3. Moreover, the “VT-XRPD form at 175° C.” value in series [3] is given as “Pattern 10 was again observed”; in series [3] (listed as Lot B Sample 1), 175° C.: Pattern 10. The “VT-XRPD form at 250° C.” value in series [3] (250° C., listed as Lot B Sample 1) is 250° C.: Patterns 10 and 11. In addition, in series [3] (cooling to 25° C.), the “VT-XRPD form on cooling to 25° C.” value is “Cooling to 25° C.: Patterns 11 and 3”. For the same molecule, the “XRPD post storage at 40° C./75% RH” value is “remained unchanged by XRPD; also recorded: Free Form Pattern 3” in series [4] (listed as 9-5) and “Unchanged by XRPD” in series [4] (listed as Lot B Sample 1). For the same molecule, the “Solubility FaSSGF” value in series [5] (FaSSGF, listed as Structure (I) Pattern 3) was 0.026 mg/mL (≈ 71 µM). The “Solubility FaSSIF” value in series [5] (FaSSIF, listed as Lot B Sample 2) is on record as “FaSSIF-0.0016 mg/mL”. In addition, the “Solubility FeSSIF” value in series [5] (FeSSIF, listed as Lot B Sample 2) is reported as “FeSSIF-0.0060 mg/mL”. Moreover, the “Solubility pH 2.0” value in series [5] (pH 2.0 buffer, listed as Lot B Sample 2) was “pH 2.0-0.012 mg/mL”. For the same molecule, the “Solubility pH 7.4” value in series [5] (pH 7.4 buffer) was “pH 7.4-0.001 mg/mL”. In addition, the “form conversion in competitive slurries (in words)” value in series [6] was “converted to Pattern 11”. In series [7], the “HPLC purity after storage at 25° C./97% RH (8 days)” value is given as 98.5%. In series [7], the “XRPD after storage at 25° C./97% RH (8 days)” value is “Unchanged by XRPD”. Moreover, the “HPLC purity change after heating at 75° C.” value in series [8] is recorded as “no change”. Further, in series [8], the “XRPD form after heating at 75° C.” value is on record as “remained as Pattern 3”.

These data come from patent US20260217712A1, “SOLID STATE FORMS OF MNK INHIBITORS” (4E Therapeutics, Inc., priority 2023, published 2026).
